Assay results as given in patent US20170157212A1, “CDK MODULATORS AND METHODS FOR THE TREATMENT OF CANCER” (Salk Institute for Biological Studies, priority 2015, published 2017).
Entries after “also recorded” stand apart in the source; their conditions may differ.

Assays:
CDK12 = assay: Co-immunoprecipitation of CRIF1 with CDK12; type: binding, human; settings: native complexes
Text: FIGS. 5A-5I. The Mitochondrial OX-PHOS Regulator, CRIF1, is a Novel Subunit of the Human CDK12 Kinase Complex. (A) Identification of CRIF1 as a near-stoichiometric subunit of the native CDK12 kinase complex. MudPIT analysis of CDK12 complexes from HEK293 cells that stably express HA-tagged full-length human CDK12. The HA-CDK12 complex was affinity-purified using anti-HA antibody and visualized by SDS-PAGE and silver-stain. (B) List of the identified proteins in the HA-CDK12 complex from (A). (C) Endogenous CRIF1 co-immunoprecipitates with native CDK12 in U2OS cell extracts. Shown is an immunoblot analysis of CRIF1, CCNK, and the chaperone proteins CDC37 and HSP90 in an anti-CDK12 immunoprecipitate. […] Native CRIF1 was immunoprecipitated from U2OS cells using an anti-CRIF1 antibody and analyzed by co-immunoprecipitation for association with various CDKs, as indicated. […] FLAG-CRIF1 proteins containing different C-terminal truncations were co-expressed with HA-CDK12 (aa 985-1490) and analyzed for binding by co-immunoprecipitation and immunoblot. […] Cell viability was analyzed after 72 hr. […] Expression of the mitochondrial MTCO-1 (COX1) protein was assessed using two different antisera. […] Each fraction (T; total, C:cytosolic, M:membrane/organelle, and N:nuclear) was analyzed by immunoblot using the indicated antibodies. […]
It was next evaluated how CRIF1 targets CDK12. […]

CDK2 = biological target: T1, CDK2 (Homo sapiens, UniProt P24941); assay: Co-immunoprecipitation of CRIF1 with CDK2; type: binding
T1 construct: endogenous in cells
Text: (§1) FIGS. 5A-5I. The Mitochondrial OX-PHOS Regulator, CRIF1, is a Novel Subunit of the Human CDK12 Kinase Complex. (A) Identification of CRIF1 as a near-stoichiometric subunit of the native CDK12 kinase complex. MudPIT analysis of CDK12 complexes from HEK293 cells that stably express HA-tagged full-length human CDK12. The HA-CDK12 complex was affinity-purified using anti-HA antibody and visualized by SDS-PAGE and silver-stain. (B) List of the identified proteins in the HA-CDK12 complex from (A). (C) Endogenous CRIF1 co-immunoprecipitates with native CDK12 in U2OS cell extracts. Shown is an immunoblot analysis of CRIF1, CCNK, and the chaperone proteins CDC37 and HSP90 in an anti-CDK12 immunoprecipitate. (D) CRIF1 is a specific subunit of the CDK12 complex. Native CRIF1 was immunoprecipitated from U2OS cells using an anti-CRIF1 antibody and analyzed by co-immunoprecipitation for association with various CDKs, as indicated. […] FLAG-CRIF1 proteins containing different C-terminal truncations were co-expressed with HA-CDK12 (aa 985-1490) and analyzed for binding by co-immunoprecipitation and immunoblot. […] Cell viability was analyzed after 72 hr. […] Expression of the mitochondrial MTCO-1 (COX1) protein was assessed using two different antisera. […] Each fraction (T; total, C:cytosolic, M:membrane/organelle, and N:nuclear) was analyzed by immunoblot using the indicated antibodies. […]

CDK8 = biological target: T2, CDK8 (Homo sapiens, UniProt P49336); assay: Co-immunoprecipitation of CRIF1 with CDK8; type: binding
T2 construct: endogenous in cells
Text: as §1

T2 sequence (P49336 whole entry): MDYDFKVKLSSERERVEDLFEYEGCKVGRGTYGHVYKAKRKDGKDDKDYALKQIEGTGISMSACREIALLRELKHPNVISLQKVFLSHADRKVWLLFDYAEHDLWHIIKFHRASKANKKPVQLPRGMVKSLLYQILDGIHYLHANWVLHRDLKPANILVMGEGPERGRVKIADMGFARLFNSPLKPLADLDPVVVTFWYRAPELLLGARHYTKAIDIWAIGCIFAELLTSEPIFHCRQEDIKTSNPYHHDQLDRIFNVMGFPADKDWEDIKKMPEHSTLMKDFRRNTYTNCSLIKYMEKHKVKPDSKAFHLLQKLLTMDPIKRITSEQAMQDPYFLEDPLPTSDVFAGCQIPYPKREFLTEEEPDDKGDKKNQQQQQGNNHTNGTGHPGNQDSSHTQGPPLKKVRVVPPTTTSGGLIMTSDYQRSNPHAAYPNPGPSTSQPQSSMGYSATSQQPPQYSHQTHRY
Sequence of CDK12 (Q9NYV4 whole entry): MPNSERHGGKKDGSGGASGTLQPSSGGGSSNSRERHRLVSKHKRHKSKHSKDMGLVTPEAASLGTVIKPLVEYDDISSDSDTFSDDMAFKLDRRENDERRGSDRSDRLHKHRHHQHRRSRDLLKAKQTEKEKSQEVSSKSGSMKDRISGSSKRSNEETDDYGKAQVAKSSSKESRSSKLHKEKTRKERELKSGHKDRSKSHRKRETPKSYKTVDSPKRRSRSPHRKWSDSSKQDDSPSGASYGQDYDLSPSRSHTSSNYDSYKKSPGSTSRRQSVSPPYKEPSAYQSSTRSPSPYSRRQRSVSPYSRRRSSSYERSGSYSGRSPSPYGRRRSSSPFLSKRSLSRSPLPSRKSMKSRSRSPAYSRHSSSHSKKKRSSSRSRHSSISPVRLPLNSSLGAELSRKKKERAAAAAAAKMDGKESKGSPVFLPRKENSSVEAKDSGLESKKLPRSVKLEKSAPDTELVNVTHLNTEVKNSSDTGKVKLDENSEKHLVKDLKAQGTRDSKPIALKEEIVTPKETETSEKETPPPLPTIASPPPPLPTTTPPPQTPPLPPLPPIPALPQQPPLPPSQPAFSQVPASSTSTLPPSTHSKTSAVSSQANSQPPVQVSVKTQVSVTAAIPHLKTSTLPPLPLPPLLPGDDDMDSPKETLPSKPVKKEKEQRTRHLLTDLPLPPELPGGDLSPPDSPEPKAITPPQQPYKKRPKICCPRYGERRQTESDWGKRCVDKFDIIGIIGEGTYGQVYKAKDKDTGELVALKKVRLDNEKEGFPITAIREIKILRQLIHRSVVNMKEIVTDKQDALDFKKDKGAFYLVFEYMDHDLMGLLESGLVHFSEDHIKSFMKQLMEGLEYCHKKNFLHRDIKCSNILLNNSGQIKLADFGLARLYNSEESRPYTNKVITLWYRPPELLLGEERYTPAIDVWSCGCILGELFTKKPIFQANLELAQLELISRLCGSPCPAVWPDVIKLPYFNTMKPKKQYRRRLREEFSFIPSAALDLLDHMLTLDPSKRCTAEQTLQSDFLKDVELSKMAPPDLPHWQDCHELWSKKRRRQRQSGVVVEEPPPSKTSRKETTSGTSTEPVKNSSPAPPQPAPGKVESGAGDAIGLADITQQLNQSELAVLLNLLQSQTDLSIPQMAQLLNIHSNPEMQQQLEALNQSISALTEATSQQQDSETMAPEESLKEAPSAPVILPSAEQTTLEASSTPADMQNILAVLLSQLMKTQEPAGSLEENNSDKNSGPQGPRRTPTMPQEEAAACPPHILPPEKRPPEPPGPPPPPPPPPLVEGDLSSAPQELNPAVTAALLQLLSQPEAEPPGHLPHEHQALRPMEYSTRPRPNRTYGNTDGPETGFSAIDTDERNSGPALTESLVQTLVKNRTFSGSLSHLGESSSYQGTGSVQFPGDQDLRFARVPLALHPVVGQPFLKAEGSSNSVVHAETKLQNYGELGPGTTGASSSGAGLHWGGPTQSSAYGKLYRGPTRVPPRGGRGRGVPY
Sequence of CDK12 (O75909 whole entry partner): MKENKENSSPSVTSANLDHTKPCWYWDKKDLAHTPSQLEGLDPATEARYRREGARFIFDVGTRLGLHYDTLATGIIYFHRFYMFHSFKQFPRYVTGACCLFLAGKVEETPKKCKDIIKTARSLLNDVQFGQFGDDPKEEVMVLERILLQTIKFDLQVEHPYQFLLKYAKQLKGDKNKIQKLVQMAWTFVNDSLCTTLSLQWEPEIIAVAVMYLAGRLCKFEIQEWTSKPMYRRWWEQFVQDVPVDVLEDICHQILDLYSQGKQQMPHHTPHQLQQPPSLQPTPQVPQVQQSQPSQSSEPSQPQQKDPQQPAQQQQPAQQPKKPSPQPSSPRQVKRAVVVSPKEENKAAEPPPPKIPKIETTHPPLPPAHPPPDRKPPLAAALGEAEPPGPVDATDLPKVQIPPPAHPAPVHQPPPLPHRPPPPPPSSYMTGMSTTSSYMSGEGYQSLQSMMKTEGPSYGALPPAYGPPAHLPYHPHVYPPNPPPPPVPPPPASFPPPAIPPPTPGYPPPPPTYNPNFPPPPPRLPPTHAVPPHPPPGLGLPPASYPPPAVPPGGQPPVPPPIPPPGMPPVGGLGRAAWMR

In the case of “Growth Arrest and DNA Damage-Inducible Proteins-Interacting Protein 1 [CRIF1]”, the “presence of CRIF1 in CDK12 complexes” value (CDK12) is reported as “present”, the “presence in / binding to CDK2 complexes” value (CDK2) is reported as “not present; also recorded: nor was binding to Cdk2 detected” and the “presence in / binding to CDK8 complexes” value (CDK8) is reported as “not present; also recorded: does not bind”.
